The source of these data is PMC5575463, “The amino‐terminal tail of Hxt11 confers membrane stability to the Hxt2 sugar transporter and improves xylose fermentation in the presence of acetic acid” (Biotechnology and Bioengineering, 2017).

Where two headings read alike, the source gives them in different places.

Experiment [1] has as its system T1, Chimeric Hxt11/2.
T1 construct: single-chain fusion: Hxt11 residues 1-54 replace Hxt2 residues 1-49, rest is Hxt2; untagged, pRS313-P7T7; expressed in S. cerevisiae DS68625 (hxt1-7, gal2 deleted)
The experiment is described as follows: […] sugar uptake by yeast cells, filtration. It is filed as cell-based, Saccharomyces cerevisiae. Particulars: labelled compound, mineral medium, strain DS68625.

The subject of experiment [2] is T1, Chimeric Hxt11/2. The experiment is described as follows: […] sugar uptake by yeast cells, filtration. It is filed as cell-based, Saccharomyces cerevisiae. Particulars: labelled compound; 0.5-500 mM xylose, 1 min uptake, mineral medium, strain DS68625; Hxt2 numbering; read-out: K m (mM) / Xylose.

Turning to `OC[C@H]1OC(O)[C@H](O)[C@@H](O)[C@@H]1O` (stereo partly drawn) [D-glucose], the Km in the experiment on Chimeric Hxt11/2 [1] (0.1-500 mM glucose, 15 s uptake, read-out: K m (mM) / Glucose) stood at 17.4 ± 3.8 mM.
For `OC1OC[C@@H](O)[C@H](O)[C@H]1O` (stereo partly drawn) [D-xylose], the Km stood at 57.3 ± 5.2 mM in the experiment on Chimeric Hxt11/2 [2] and 69 ± 9.1 mM with Chimeric Hxt11/2 [1] (0.5-500 mM xylose, 1 min uptake, read-out: K m (mM) / Xylose).
